Results on 2 molecules are retold here after patent EP3138569B1, “COMPOSITION FOR EXTERNAL APPLICATION” (priority 2014, dated 2015).

Like-named read-outs stand apart in the source and are kept apart here.

The test system of test [1] is Normal human epidermal fibroblasts. Nature of the test: Evaluation of reducing effect of oxidative stress induced cell damage (UVB 25 mJ/cm^2, Neutral Red). It is filed as cell-based. The method, then: (§1) When cells are irradiated with UVB, reactive oxygen species (such as a superoxide anion radical, hydrogen peroxide, and a hydroxyl radical) generate. The viability of cells obtained when the cells were irradiated with UVB was used as index to evaluate the reducing effect of the oxidative stress induced cell damage.
(§2) Normal human epidermal fibroblasts suspended in a KG2 medium were inoculated in a 96-well plate at a density of 2.0 x 10^4 cells per well. After 24 hours of the inoculation, the medium was exchanged with a KG2 medium (each test solution) which contained trehalulose or reduced isomaltulose at the concentrations shown in Table 2 (i.e., each six types of concentrations including 0.000 w/v %) and cultured for 24 hours. […] Also, groups that were not irradiated with UVB were provided as control groups. After culturing, the medium was exchanged with a KB2 medium containing 33 µg/mL of Neutral Red (NR) and was cultured for 2 hours. After culturing, the cells were washed with PBS, and NR captured within the cells was extracted with a 0.1M HCl solution containing 30% (v/v) ethanol. Absorbance of the extract at 550 nm was measured.
Except that the each test solution was changed to a KG2 medium which contained isomaltulose at the concentrations shown in Table 4 (i.e., six types of concentrations including 0.000 w/v %) and that the irradiation intensity of UVB was changed to 25 mJ/cm^2, the reducing effect of the oxidative stress induced cell damage was evaluated according to the same procedure as in Example 2.

The target of another test is T1, tyrosinase (Homo sapiens, UniProt P14679).
T1 sequence (P14679 19-529): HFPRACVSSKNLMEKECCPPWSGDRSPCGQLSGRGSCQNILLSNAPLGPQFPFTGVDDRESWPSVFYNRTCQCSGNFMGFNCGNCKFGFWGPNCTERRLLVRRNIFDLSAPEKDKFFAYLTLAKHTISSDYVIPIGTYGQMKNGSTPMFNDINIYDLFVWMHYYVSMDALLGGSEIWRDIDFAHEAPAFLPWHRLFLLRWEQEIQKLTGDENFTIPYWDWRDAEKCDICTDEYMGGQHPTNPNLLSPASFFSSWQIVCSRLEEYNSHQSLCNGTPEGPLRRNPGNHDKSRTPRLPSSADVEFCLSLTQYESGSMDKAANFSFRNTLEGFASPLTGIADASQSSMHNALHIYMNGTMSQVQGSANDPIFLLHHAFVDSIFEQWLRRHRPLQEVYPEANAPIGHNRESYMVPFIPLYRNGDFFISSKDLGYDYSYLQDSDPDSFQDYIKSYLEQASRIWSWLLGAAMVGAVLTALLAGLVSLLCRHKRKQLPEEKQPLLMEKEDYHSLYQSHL
The note with it: for Tyrosinase enzyme activity (µg melanin/µg protein/h): 0.5 mM L-DOPA, 37 °C, 2 hours, n=5; for tyrosinase-inhibiting effect: Student's t-test.

Test [2] has as its system Normal human epidermal fibroblasts. Nature of the test: Evaluation of fibroblast-activating effect (MTT, blue formazan). It is filed as cell-based. The settings on record: for activity at 0.313 % / activity at 0.625 % / activity at 1.25 % / activity at 2.5 % / activity at 5 %: Homo sapiens, Fibroblast, 48 h, blue formazan relative to non-treated cells = 100, n=4, read-out: Index (%); for activity at 0.313 %: 0.313 w/v%; for activity at 0.625 %: 0.625 w/v%; for activity at 1.25 %: 1.250 w/v%; for activity at 2.5 %: 2.500 w/v%; for activity at 5 %: 5.000 w/v%; for fibroblast-activating effect: Student's t-test. The method, then:
Normal human epidermal fibroblasts suspended in a DMEM medium containing a 5% calf serum (FBS) were inoculated in a 96-well plate at a density of 2.0 x 10^4 cells per well. After 24 hours of the inoculation, the medium was exchanged with a 1% calf serum (FBS) -containing DMEM medium (each test solution) which contained trehalulose, isomaltulose, or reduced isomaltulose at the concentrations shown in Table 1 (i.e., each six types of concentrations including 0.000 w/v %). […] Also, 5% FBS-containing DMEM media were used as positive controls (P.C.). After culturing for 48 hours, the medium was exchanged with a 1% FBS-containing DMEM medium which contained 0.4 mg/mL of 3-(4,5-dimethylthiazol-2-yl)-2,5-diphenyltetrazolium bromide (MTT) and cultured for 2 hours. The medium was removed, and when 2-propanol was added, blue formazan generated was extracted. Absorbance of the extract at 550 nm was measured to obtain the amount of blue formazan.

For test [3] the test system is unchanged. Nature of the test: Evaluation of reducing effect of oxidative stress induced cell damage (UVB 20 mJ/cm^2, Neutral Red). The class given is cell-based. Here is the method:
as §1, §2

`O=C(CO)[C@@H](O)[C@H](O)[C@H](O)CO[C@H]1O[C@H](CO)[C@@H](O)[C@H](O)[C@H]1O` [Isomaltulose, 6-O-α-D-glucopyranosyl-D-fructose]: in test [1] (Homo sapiens, Fibroblast, light or radiation study, 24 h, 0.013 w/v%, absorbance relative to UVB non-irradiated group = 100, n=4, read-out: Index (%)), the viability at 0.013 % came out at 80 ± 1.8%. For the same molecule, the viability at 0.025 % in test [1] (Homo sapiens, Fibroblast, light or radiation study, 24 h, 0.025 w/v%, absorbance relative to UVB non-irradiated group = 100, n=4, read-out: Index (%)) worked out at 83.7 ± 3.5%. Moreover, the viability at 0.05 % in test [1] (Homo sapiens, Fibroblast, light or radiation study, 24 h, 0.050 w/v%, absorbance relative to UVB non-irradiated group = 100, n=4, read-out: Index (%)) amounted to 84.3 ± 1.1%. The viability at 0.1 % in test [1] (Homo sapiens, Fibroblast, light or radiation study, 24 h, 0.100 w/v%, absorbance relative to UVB non-irradiated group = 100, n=4, read-out: Index (%)) is 86.2 ± 2.5%. Also, the viability at 0.2 % in test [1] (Homo sapiens, Fibroblast, light or radiation study, 24 h, 0.200 w/v%, absorbance relative to UVB non-irradiated group = 100, n=4, read-out: Index (%)) came to 86.8 ± 2.9%. Moreover, in test [1] (Student's t-test), the “reducing effect of cell damage” value is “significant reducing effect of cell damage”. On tyrosinase (0.094 w/v%), the “Tyrosinase enzyme activity (µg melanin/µg protein/h)” value (from here on “Tyrosinase enzyme activity”) was found to be 0.205 ± 0.004 µg melanin/µg protein/h. For the same molecule, on tyrosinase (0.188 w/v%), the “Tyrosinase enzyme activity” value is 0.208 ± 0.003 µg melanin/µg protein/h. In addition, the “Tyrosinase enzyme activity” value on tyrosinase (0.375 w/v%) is 0.200 ± 0.006 µg melanin/µg protein/h. Moreover, the “Tyrosinase enzyme activity” value at tyrosinase (0.750 w/v%) was determined as 0.196 ± 0.004 µg melanin/µg protein/h. The “Tyrosinase enzyme activity” value on tyrosinase (1.500 w/v%) was determined as 0.190 ± 0.003 µg melanin/µg protein/h. Besides, the “Tyrosinase enzyme activity” value at tyrosinase (3.000 w/v%) came to 0.184 ± 0.004 µg melanin/µg protein/h. Also, the tyrosinase-inhibiting effect entry at tyrosinase is listed as “significant tyrosinase-inhibiting effect”. For the same molecule, in test [2], the activity at 0.313 % stood at 101 ± 2%, the activity at 0.625 % was determined as 107 ± 4.4%, the activity at 1.25 % came out at 111 ± 2.3% and the activity at 2.5 % is 113 ± 2.1%. Besides, in test [2], the activity at 5 % was 112% and the fibroblast-activating effect result was “significant fibroblast-activating effect”.
For the molecule `O=C(CO[C@H]1O[C@H](CO)[C@@H](O)[C@H](O)[C@H]1O)[C@@H](O)[C@H](O)[C@H](O)CO` [Trehalulose, 1-O-α-D-glucopyranosyl-D-fructose], the viability at 0.125 % in test [3] (Homo sapiens, Fibroblast, light or radiation study, 24 h, 0.125 w/v%, absorbance relative to UVB non-irradiated group = 100, n=4, read-out: Index (%)) came to 80.7 ± 2.7%. The viability at 0.25 % in test [3] (Homo sapiens, Fibroblast, light or radiation study, 24 h, 0.250 w/v%, absorbance relative to UVB non-irradiated group = 100, n=4, read-out: Index (%)) was 82 ± 4.1%. The viability at 0.5 % in test [3] (Homo sapiens, Fibroblast, light or radiation study, 24 h, 0.500 w/v%, absorbance relative to UVB non-irradiated group = 100, n=4, read-out: Index (%)) came out at 86.5 ± 1.3%. For the same molecule, the viability at 1 % in test [3] (Homo sapiens, Fibroblast, light or radiation study, 24 h, 1.000 w/v%, absorbance relative to UVB non-irradiated group = 100, n=4, read-out: Index (%)) was 93 ± 0.4%. Also, in test [3] (Homo sapiens, Fibroblast, light or radiation study, 24 h, 2.000 w/v%, absorbance relative to UVB non-irradiated group = 100, n=4, read-out: Index (%)), the viability at 2 % was found to be 94.8 ± 1%. Moreover, the “reducing effect of cell damage” value in test [3] (Student's t-test) is given as “significant reducing effect of cell damage”. On tyrosinase (0.094 w/v%), the “Tyrosinase enzyme activity” value amounted to 0.251 ± 0.034 µg melanin/µg protein/h. The “Tyrosinase enzyme activity” value on tyrosinase (0.188 w/v%) was found to be 0.251 ± 0.051 µg melanin/µg protein/h. In addition, at tyrosinase (0.375 w/v%), the “Tyrosinase enzyme activity” value is 0.244 ± 0.044 µg melanin/µg protein/h. Further, the “Tyrosinase enzyme activity” value at tyrosinase (0.750 w/v%) is reported as 0.232 ± 0.028 µg melanin/µg protein/h. For the same molecule, on tyrosinase (1.500 w/v%), the “Tyrosinase enzyme activity” value was found to be 0.197 ± 0.004 µg melanin/µg protein/h. For the same molecule, the “Tyrosinase enzyme activity” value on tyrosinase (3.000 w/v%) is recorded as 0.188 ± 0.004 µg melanin/µg protein/h. Further, the tyrosinase-inhibiting effect entry on tyrosinase is given as “significant tyrosinase-inhibiting effect”. In addition, in test [2], the activity at 0.313 % was found to be 101 ± 2.4%, the activity at 0.625 % stood at 104 ± 2.5%, the activity at 1.25 % stood at 106.9 ± 0.8% and the activity at 2.5 % was determined as 112 ± 1.4%. In addition, in test [2], the activity at 5 % was 114 ± 5.8% and the fibroblast-activating effect result was “significant fibroblast-activating effect”.
